Earlier results as cited in paper PMC7397562 (Drug Design, Development and Therapy, 2020).

## COc1ccc(-c2cc(=O)c3c(OC)c(OC)c(OC)c(OC)c3o2)cc1 [TAGE, tangeretin]
  Oral absolute bioavailability (mean value): < 3.05%
